Results on four compounds are retold here after patent US11046712B2, “Glycosidase inhibitors” (Asceneuron SA, priority 2014, dated 2021).

The target in this assay is His-Tagged hOGA (human O-GlcNAcase) (Homo sapiens (Human), UniProt O60502). The assay can be described thus: Human O-GlcNAcase enzyme inhibition assay (Example B01). Type of assay: biochemical. The note with it: for IC50: OGA enzyme inhibition assay, activity range classes.

Where two headings read alike, the source gives them in different places.

His-Tagged hOGA (human O-GlcNAcase), sequence (O60502 whole entry): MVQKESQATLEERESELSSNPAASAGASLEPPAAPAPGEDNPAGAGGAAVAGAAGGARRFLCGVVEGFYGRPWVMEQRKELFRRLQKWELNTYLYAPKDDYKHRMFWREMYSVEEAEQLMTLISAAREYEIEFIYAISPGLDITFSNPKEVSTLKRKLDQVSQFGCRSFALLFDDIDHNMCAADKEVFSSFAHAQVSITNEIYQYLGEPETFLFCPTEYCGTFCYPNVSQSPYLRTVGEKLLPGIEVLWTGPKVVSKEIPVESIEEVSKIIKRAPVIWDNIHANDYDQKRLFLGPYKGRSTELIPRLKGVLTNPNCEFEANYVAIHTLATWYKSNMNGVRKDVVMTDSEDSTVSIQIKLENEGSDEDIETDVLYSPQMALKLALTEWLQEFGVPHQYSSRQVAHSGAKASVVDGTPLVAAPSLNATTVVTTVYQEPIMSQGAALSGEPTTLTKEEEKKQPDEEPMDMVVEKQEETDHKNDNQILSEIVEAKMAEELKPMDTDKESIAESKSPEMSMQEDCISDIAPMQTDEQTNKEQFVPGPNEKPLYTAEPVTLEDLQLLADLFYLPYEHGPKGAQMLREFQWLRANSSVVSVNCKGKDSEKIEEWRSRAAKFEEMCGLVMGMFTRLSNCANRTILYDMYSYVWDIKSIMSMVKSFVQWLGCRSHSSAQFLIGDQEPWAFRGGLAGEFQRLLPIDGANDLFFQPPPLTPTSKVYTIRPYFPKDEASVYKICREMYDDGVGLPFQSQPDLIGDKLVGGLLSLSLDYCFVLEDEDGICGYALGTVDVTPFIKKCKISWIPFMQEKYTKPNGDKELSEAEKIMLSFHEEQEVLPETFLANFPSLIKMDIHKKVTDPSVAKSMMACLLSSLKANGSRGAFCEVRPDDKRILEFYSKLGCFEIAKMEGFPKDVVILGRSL

With `CC(=O)Nc1cnc(N2CCN(C(C)c3ccc4cccnc4c3)CC2)nc1` (racemic) [Example 120, N-(2-(4-(1-(quinolin-7-yl)ethyl)piperazin-1-yl)pyrimidin-5-yl)acetamide], under “OGA IC50 (M)”, the IC50 lay within 2e-07 to 1e-06 M. Take `CC(O)c1cnc(N2CCN([C@@H](C)c3ccc4c(c3)OCO4)CC2)nc1` (stereo in doubt) [Example 168, 1-(2-(4-((S)-1-(benzo[dl]1,31dioxol-5-yl)ethyl)piperazin-1-yl)pyrimidin-5-yl)ethan-1-ol]: the “OGA inhibitor activity, in words” value was “very potent OGA inhibitors”. Turning to `C[C@@H](c1ccc2c(c1)OCCO2)N1CCN(c2ncc(C(=O)N3CCC(O)CC3)s2)CC1` (single isomer, unassigned) [Example 81, (/?)-(2-(4-(1-(2,3-Dihydrobenzorbin,41dioxin-6-yl)ethyl)piperazin-1-yl)thiazol-5-yl)(4-hydroxypiperidin-1-yl)methanone or (S)-(2-(4-(1-(2,3-Dihydrobenzorbin,41dioxin-6-yl)ethyl)piperazin-1-yl)thiazol-5-yl)(4-hydroxypiperidin-1-yl)methanone], the IC50 (read-out: OGA IC50) was less than 5e-08 M. Turning to `C[C@@H](c1ccc2c(c1)OCO2)N1CCN(c2ncc(C3(O)CCCC3)cn2)CC1` [Example 181, (S)-1-(2-(4-(1-(benzofdlH,31dioxol-5-yl)ethyl)piperazin-1-yl)pyrimidin-5-yl)cyclopentan-1-ol], the “OGA inhibitor activity, in words” value is “very potent OGA inhibitors”.

Usually IC50 stands for the concentration at which inhibition is half-maximal.
